Source: US9284350B2, “IAP BIR domain binding compounds” (Pharmascience Inc., priority 2010, dated 2016)

How the values were obtained:
cIAP2 = biological target: T1, cIAP2 (Homo sapiens, UniProt Q13489); assay: Fluorescence polarization-based competition assay, cIAP2; type: binding; conditions: FP assay, ki derived from IC50
T1 construct: GST (N); made in house; host or cells: E. coli DH5α
Procedure, shortened: (§1)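 Competition of FITC-labelled probe (2 nM) binding to the BIR domain, protein set at 80% of maximal FP signal; 10-point compound dilutions in 50 mM HEPES pH 7.5, γ-globulin, 2 mM DTT, 1% DMSO, 1 h at room temperature in the dark. IC50 from sigmoidal fit; Ki derived from IC50.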

c-IAP1 = biological target: T2, c-IAP1 (Homo sapiens, UniProt Q13490); assay: Fluorescence polarization-based competition assay, c-IAP1; type: binding; conditions: FP assay, ki derived from IC50
T2 construct: GST (N); made in house; host or cells: E. coli DH5α
Procedure, shortened: as §1

XIAP = biological target: T3, XIAP (Homo sapiens, UniProt P98170); assay: Fluorescence polarization-based competition assay, XIAP; type: binding; conditions: FP assay, ki derived from IC50
T3 construct: fused on or other part: GST tag at the N-terminus (pGEX4T vectors)
Procedure, shortened: as §1

[1] = tested on: Colorectal carcinoma HCT116 cells; assay: Cell death assay (MTT) in combination with HGS ETR1; type: cell-based; conditions: with HGS ETR1 30 ng/ml, 72 hours, read-out: HCT116+ mapatubimap EC50
Procedure, shortened: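 HCT116 cells (2000/well, McCoy's 5a, 10% FBS) were treated 24 h after plating with compound plus the agonistic TRAIL receptor antibody mapatumumab (ETR1, 30 ng/ml) for 72 hours. Viability was read by MTT. EC50 was the concentration giving 50% survival relative to untreated controls.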

[2] = Maximum Tolerated Dose (MTD) study; type: in vivo, CD-1 mice; conditions: 350 mg/kg dose, PO twice weekly
Description: Male, CD-1 mice (20-25 g on arrival, Charles River) were habituated to the animal facility for four days and then randomly assigned to treatment groups. Animals were dosed by oral gavage twice weekly, for a total of six treatments, with compounds 63, 58, 45, 10, 20, 40, and 66 at 15, 70, or 350 mg/kg in water, PO, or water alone (5 ml/kg, PO). Body weight and general health were monitored throughout the experiment. Twenty four hours after the last dose (day 19), animals were anesthetized with isoflurane, and blood was collected for serum biochemistry. Serum biochemical parameters were restricted to random glucose, urea, creatinine, total protein, albumin, globulin, A:G ratio, total bilirubin, AST, ALT, alkaline phosphatase, GGT and amylase. Once exsanguinated the animals underwent full necropsy and organ weights were recorded for brain, heart, liver, spleen, kidneys, stomach (empty) and intestine (empty, from stomach to cecum). Because some treatments were suppressing weight gain (see below), organ weights were normalized to brain weight, and then expressed as percent change from the vehicle treated control group.

T1 sequence (Q13489 236-349): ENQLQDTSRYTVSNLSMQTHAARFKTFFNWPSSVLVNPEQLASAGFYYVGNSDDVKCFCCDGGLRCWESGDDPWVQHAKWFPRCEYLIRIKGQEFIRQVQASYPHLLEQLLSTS
T2 sequence (Q13490 251-363): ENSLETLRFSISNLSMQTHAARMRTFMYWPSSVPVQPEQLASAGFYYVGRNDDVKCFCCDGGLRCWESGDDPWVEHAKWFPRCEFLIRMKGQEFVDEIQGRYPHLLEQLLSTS
T3 sequence (P98170 246-497 limits assumed): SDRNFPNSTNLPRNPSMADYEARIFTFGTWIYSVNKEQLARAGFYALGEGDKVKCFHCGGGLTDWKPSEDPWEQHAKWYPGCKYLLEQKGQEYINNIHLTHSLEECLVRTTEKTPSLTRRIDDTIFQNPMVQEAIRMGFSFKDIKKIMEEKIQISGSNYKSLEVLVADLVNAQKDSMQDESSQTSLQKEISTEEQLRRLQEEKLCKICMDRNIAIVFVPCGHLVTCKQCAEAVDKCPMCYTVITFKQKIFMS

Row | Structure (SMILES) | Ki (cIAP2) [nM] | Ki (c-IAP1) [nM] | Ki (XIAP) [nM] | EC50 [1] [nM] | body weight change [2]
1 | CN[C@@H](C)C(=O)N[C@H](C(=O)N1CCC[C@H]1CN(CCc1ccc(F)cc1)C(=O)c1cn(C)cn1)C(C)(C)C [Compound 40] | < 25 | < 25 | < 250 | < 50 | slight weight loss
2 | CN[C@@H](C)C(=O)N[C@H](C(=O)N1CCC[C@H]1CN(CCc1ccc(F)cc1)C(=O)c1cn2cc(F)cnc2n1)C(C)(C)C [Compound 63] | < 25 | < 25 | < 250 | < 50 | slight weight loss
